{"source": "patent US20170348306A1", "about": "“METHODS OF TREATING CANCER” (GLAXOSMITHKLINE LLC, priority 2011, published 2017)", "key": {"KARPAS-422 [1]": {"system": "KARPAS-422", "experiment": "Cell proliferation assay (6 days, CellTiter-Glo)", "assay_type": "cell-based, human", "from_the_text": "(§1) Thus, Example 22 and Table 6 better reflect the inhibition of HZH2 inhibitors on cell lines, e.g. the lymphoma cell lines. DLBCL cell lines were the most sensitive to EZH2 inhibition (FIG. 11a). […] Evaluation of GSK126 in additional lymphoma cell lines and extensive genomic and epigenomic characterization will be required to fully elucidate the determinants of sensitivity among lymphoma subtypes.\n(§2) Biochemical assays utilized the 5-member PRC2 complex (human Flag-EZH2, EED, SUZ12, AEBP2, RbAp48) containing either WT or mutant EZH2, [^3H-]SAM and the indicated peptide substrate; reactions were incubated for 30 minutes. Global histone modification levels were determined by ELISA or western blot methods using antibodies specific for total histone H3, H3K27me1, H3K27me2, or H3K27me3. Cell proliferation and Caspase-3/7 activity were assessed using CellTiter-Glo and Caspase-Glo 3/7 (Promega), respectively. Gene expression profiling was conducted using Affymetrix Human Genome U133 Plus 2.0 microarrays. Differentially-expressed probe sets were determined by fitting the data to a linear model using the limma statistical package (http://www.bioconductor.org) and carrying out pair-wise contrasts of treated versus control. Significant probe sets were filtered for detection (log2 signal threshold of 8), an average fold-change >2 or <−2, or >1.5 or <−1.5, where indicated, with p-values adjusted for multiple testing correction by FDR (Benjamini Hochberg)<0.1. H3K27me3 ChIP reads were aligned using Bowtie (56). H3K27me3 enrichment peaks were identified using SICER (57) with optimized parameters. A custom PERL script was utilized to quantify the average basal H3K27me3 ChIP-seq tag density across gene sets. All in vivo studies were conducted after review by the Institutional Animal Care and Use Committee at GSK and in accordance with the GSK Policy on the Care, Welfare and Treatment of Laboratory Animals. GSK126 and vehicle were administered to mice intraperitoneally. Two-tailed t-tests were conducted assuming two samples of equal variance.\n(§3) The optimal cell seeding was determined empirically for all cell lines by examining the growth of a wide range of seeding densities in a 384-well format to identify conditions that permitted proliferation for 6 days. […] Plates were incubated for 6 days at 37° C. in 5% CO2. Cells were then lysed with CellTiter-Glo (Promega) and chemiluminescent signal was detected with a TECAN Safire2 microplate reader. In addition, an untreated plate of cells was harvested at the time of compound addition (T0) to quantify the starting number of cells. CTG values obtained after the 6 day treatment were expressed as a percent of the T0 value and plotted against compound concentration."}, "Pfeiffer": {"system": "Pfeiffer", "experiment": "Cell proliferation assay (6 days, CellTiter-Glo)", "assay_type": "cell-based, human", "from_the_text": "as §1, §2, §3"}, "[2]": {"system": "TXNIP and TNFRSF21 expression", "experiment": "qRT-PCR of H3K27me3-enriched genes", "assay_type": "cell-based, human", "conditions": "72 hours", "experimental": "RNA (2.8 μg) was reverse transcribed with MultiScribe Reverse Transcriptase (Applied BioSystems) according to the manufacturer's recommendations. The resulting cDNA was diluted and used along with TaqMan gene expression assays (Applied Biosystems; GAPDH, Hs03929097_g1; TNFRSF21, Hs00205419_m1; TXNIP, Hs00197750_m1). TaqMan Gene Expression Master Mix (Applied BioSystems), and a ViiA 7 Real-Time PCR System (Applied BioSystems) according to the manufacturer's recommendations to quantify gene expression."}, "[3]": {"system": "H3K27me3 and EZH2 target genes in tumor xenografts", "experiment": "Pharmacodynamic study in tumor xenografts (H3K27me3/H3 ELISA, qRT-PCR)", "assay_type": "in vivo, mice", "conditions": "10 days of once-daily (QD) dosing; dose-dependent", "experimental": "Following tissue homogenization, tumor tissue lysates were prepared using the Epigentek Histone Extraction kit (OP-0006). […] Cells were lysed with 0.2N HCl for 30 minutes to extract histones, the acid-insoluble portion was pelleted by centrifugation, and the supernatant was neutralized with neutralization buffer (1M Na2HPO4, pH 12.5; ActiveMotif) containing protease inhibitors (Roche). Lysates were added to Maxisorp ELISA plates (Nunc) in duplicate on each of two plates plus blocking buffer (1% BSA). […] Luminata Forte substrate (Millipore) was added 5 minutes before chemiluminescence was quantified with an EnVision multi-label plate reader (PerkinElmer). H3K27me3 levels were normalized to total H3 values and IC50 values were determined using a 4-parameter curve fit. […]\nAll studies were conducted after review by the Institutional Animal Care and Use Committee at GSK and in accordance with the GSK Policy on the Care, Welfare and Treatment of Laboratory Animals. […] Tumors were measured with calipers, block randomized according to tumor size into treatment groups. […] Mice were weighed and tumors measured with calipers twice weekly. […]"}, "EZH2": {"biological_target": "T1, EZH2 (Homo sapiens, UniProt Q15910)", "T1 construct": "TEV site (FLAG-tev-EZH2) (N); made in house; host or cells: Sf9 insect cells (baculovirus)", "T1 sequence (Q15910 whole entry)": "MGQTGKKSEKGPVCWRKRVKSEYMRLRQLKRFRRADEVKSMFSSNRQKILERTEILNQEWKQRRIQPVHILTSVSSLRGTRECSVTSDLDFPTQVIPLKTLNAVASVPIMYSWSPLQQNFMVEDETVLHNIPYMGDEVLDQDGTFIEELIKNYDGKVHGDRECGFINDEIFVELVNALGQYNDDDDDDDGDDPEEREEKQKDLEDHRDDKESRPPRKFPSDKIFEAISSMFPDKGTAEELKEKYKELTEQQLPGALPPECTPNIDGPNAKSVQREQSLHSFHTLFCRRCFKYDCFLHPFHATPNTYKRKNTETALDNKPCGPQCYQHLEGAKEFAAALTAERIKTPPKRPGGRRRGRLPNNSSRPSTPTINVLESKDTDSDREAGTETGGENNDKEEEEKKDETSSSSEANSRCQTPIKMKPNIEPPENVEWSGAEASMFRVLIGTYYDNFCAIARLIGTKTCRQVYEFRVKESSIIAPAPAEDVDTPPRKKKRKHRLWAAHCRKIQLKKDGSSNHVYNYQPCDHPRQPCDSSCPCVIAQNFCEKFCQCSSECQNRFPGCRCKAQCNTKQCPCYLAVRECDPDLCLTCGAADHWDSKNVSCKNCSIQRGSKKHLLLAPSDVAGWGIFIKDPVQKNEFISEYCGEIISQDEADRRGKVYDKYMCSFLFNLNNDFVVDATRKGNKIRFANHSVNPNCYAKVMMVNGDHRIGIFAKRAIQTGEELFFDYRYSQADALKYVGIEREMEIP", "T1 sequence (O75530 whole entry partner)": "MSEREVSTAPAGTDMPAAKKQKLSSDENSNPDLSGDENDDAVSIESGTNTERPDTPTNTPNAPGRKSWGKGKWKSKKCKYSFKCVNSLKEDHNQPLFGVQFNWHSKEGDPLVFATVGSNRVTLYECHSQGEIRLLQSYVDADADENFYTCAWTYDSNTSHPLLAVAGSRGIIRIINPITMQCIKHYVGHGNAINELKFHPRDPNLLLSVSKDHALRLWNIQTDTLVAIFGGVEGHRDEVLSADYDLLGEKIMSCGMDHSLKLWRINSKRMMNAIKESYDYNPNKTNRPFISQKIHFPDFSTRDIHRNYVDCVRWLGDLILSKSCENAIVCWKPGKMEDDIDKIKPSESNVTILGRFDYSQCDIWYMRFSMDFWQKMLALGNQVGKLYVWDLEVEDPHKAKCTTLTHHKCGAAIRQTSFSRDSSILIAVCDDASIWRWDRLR", "T1 sequence (Q15022 whole entry partner)": "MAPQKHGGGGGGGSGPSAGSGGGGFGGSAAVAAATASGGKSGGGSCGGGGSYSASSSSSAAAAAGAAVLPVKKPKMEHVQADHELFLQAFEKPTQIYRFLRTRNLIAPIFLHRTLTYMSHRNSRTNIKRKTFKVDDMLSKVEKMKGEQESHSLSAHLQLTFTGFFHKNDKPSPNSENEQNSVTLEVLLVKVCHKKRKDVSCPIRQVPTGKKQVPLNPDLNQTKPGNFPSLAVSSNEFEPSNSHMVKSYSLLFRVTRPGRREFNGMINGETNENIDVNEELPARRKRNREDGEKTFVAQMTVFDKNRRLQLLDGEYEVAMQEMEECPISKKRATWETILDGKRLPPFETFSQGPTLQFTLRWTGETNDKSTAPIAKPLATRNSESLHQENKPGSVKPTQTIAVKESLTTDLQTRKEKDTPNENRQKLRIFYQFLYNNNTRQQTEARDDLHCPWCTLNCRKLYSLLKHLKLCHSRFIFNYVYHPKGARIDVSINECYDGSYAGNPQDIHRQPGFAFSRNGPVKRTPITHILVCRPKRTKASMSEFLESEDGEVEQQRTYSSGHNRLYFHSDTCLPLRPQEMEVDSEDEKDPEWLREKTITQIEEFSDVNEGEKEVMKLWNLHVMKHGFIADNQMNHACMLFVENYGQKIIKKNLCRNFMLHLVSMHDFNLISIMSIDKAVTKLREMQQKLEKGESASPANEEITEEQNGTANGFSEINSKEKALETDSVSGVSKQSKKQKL", "T1 sequence (Q09028 whole entry partner)": "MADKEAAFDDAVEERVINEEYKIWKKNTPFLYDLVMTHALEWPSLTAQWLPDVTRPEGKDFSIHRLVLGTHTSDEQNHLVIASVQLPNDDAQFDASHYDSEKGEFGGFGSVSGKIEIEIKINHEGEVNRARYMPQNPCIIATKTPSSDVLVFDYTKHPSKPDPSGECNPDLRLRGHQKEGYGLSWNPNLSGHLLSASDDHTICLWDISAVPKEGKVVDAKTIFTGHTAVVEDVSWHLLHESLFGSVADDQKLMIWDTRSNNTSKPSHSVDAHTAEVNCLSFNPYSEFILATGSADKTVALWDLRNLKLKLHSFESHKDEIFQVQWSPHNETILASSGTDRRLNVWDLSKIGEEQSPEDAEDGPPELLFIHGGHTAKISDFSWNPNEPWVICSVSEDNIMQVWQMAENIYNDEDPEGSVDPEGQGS", "T1 sequence (Q6ZN18 1-503 partner limits assumed)": "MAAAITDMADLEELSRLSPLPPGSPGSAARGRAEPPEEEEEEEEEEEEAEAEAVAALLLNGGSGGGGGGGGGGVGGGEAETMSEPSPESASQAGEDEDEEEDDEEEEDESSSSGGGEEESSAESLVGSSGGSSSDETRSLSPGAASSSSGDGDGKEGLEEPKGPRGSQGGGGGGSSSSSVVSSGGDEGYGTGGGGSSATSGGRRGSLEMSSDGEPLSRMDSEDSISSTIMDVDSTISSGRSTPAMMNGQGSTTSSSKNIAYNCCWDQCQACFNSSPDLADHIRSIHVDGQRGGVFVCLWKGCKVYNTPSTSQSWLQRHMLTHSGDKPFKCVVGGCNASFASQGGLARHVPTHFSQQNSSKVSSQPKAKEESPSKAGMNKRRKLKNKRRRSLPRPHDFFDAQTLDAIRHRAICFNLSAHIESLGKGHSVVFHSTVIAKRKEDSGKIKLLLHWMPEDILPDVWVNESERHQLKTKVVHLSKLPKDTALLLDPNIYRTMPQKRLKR", "experiment": "Mechanism of GSK126 inhibition of EZH2 (IC50 at varied SAM and peptide)", "assay_type": "biochemical", "conditions": "SAM 0.1-15 μM; peptide 16-60 μM", "from_the_text": "The resulting IC50 values were plotted against the [SAM]/Km ratio or the [peptide]/Km ratio respectively."}, "KARPAS-422 [4]": {"system": "KARPAS-422", "experiment": "Cell cycle analysis by flow cytometry", "assay_type": "cell-based, human", "conditions": "500 nM GSK126, 72 hours", "experimental": "Cell cycle phase distribution was examined by flow cytometry. […] Cells were washed with PBS, pelleted in BD buffer solution, flash frozen, and stored at −80° C. CycleTest™ PLUS DNA reagent kit (Becton Dickinson, 340242) was used according to the manufacturer's instructions to prepare and stain nuclei with propidium iodide. Samples were evaluated using a FACSCalibur flow cytometer (Becton Dickinson) and data were analyzed using FlowJo software (Tree Star)."}}, "data": [{"smiles": "CC[C@H](C)n1cc(C)c2c(C(=O)NCc3c(C)cc(C)[nH]c3=O)cc(-c3ccc(N4CCNCC4)nc3)cc21", "note": "[GSK126]", "values": [{"measurement": "time required for maximal potency on growth", "setting": "KARPAS-422 [1]", "value": "6 to 7", "unit": "days"}, {"measurement": "IC50", "setting": "KARPAS-422 [1]; Homo sapiens, 144 h, 6 days, DLBCL, EZH2 Y641F (HET), read-out: AVERAGE GROWTH IC50", "value": 232, "unit": "nM"}, {"measurement": "time after which net decreases in cell number were evident", "setting": "Pfeiffer", "value": 3, "unit": "days"}, {"measurement": "time after which potent inhibition of cell proliferation was observed", "setting": "Pfeiffer", "value": 2, "unit": "days"}, {"measurement": "IC50", "setting": "Pfeiffer; Homo sapiens, 144 h, […], 6 days, DLBCL, EZH2 A677G (HET), read-out: AVERAGE GROWTH IC50", "value": 28, "unit": "nM"}, {"measurement": "lowest concentration with dose-responsive increases in gene expression", "setting": "[2]; Pfeiffer and KARPAS-422, two H3K27me3-enriched genes", "value": 25, "unit": "nM"}, {"measurement": "gene expression changes (qRT-PCR)", "setting": "[2]; Toledo, up to 1 μM GSK126", "value": "no transcriptional changes"}, {"measurement": "gene expression in tumor xenografts", "setting": "[3]", "value": "increased"}, {"measurement": "global H3K27me3 in tumor xenografts", "setting": "[3]", "value": "decreased"}, {"measurement": "mechanism of inhibition", "setting": "EZH2", "value": "competitive with SAM and non-competitive with peptide substrates"}, {"measurement": "cells in G1", "setting": "KARPAS-422 [4]", "value": 77, "unit": "%"}]}]}
